Laboratory results from US20240199692A1 (priority 2019, published 2024).
Where two headings read alike, the source gives them in different places. *1 amine or outer side, *2 acyl side, *3 side chain or, on linkers, in order; H or OH if unused. Where a SMILES comes first, the peptide text is derived from it. [ ]: non-standard residue; d: D form. The star is where a group is joined. PhSO2(4-NHCOPh(4-CONH2)) = NC(=O)c1ccc(C(=O)Nc2ccc(S(=O)(=O)*)cc2)cc1; Phenylsulfonyl(4-anisamido) = COc1ccc(C(=O)Nc2ccc(S(=O)(=O)*)cc2)cc1; X1 = O=C(Nc1ccc(S(=O)(=O)*)cc1)c1ccc(OC(F)(F)F)cc1; d(γGlu) = O=C(O)[C@@H](CCC(=O)[*:2])N[*:1]; d(βAsp) = O=C(O)[C@@H](CC(=O)[*:2])N[*:1]; Pro(4S-NH2) = N[C@@H]1CN[C@H](C(=O)O)C1; NMeI = CC[C@H](C)[C@H](NC)C(=O)O; NMeE = CN[C@@H](CCC(=O)O)C(=O)O; β3hP = O=C(O)C[C@@H]1CCCN1; Dab = NCC[C@H](N)C(=O)O; Dap = NC[C@H](N)C(=O)O

Key:
MMP2 [1] = molecular target: T1, MMP2 (Homo sapiens, UniProt P08253); conditions: reported, see NPTL 19; cited from earlier work
T1 sequence (P08253 110-660): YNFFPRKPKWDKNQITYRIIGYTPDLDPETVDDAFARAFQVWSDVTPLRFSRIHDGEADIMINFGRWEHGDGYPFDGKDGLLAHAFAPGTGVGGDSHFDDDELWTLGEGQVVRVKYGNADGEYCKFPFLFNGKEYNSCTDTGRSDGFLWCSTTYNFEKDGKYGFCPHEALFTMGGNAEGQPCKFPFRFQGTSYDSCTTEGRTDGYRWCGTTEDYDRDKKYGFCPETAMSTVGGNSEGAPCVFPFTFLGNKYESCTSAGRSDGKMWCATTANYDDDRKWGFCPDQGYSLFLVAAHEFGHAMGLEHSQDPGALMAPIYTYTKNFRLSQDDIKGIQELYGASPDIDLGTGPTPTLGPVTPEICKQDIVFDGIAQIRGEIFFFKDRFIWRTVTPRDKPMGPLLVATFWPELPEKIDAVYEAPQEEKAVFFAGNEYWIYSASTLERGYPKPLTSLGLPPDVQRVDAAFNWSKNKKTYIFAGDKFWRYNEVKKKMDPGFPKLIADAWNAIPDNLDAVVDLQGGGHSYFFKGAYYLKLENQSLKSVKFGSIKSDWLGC

MMP2 [2] = molecular target: T1, MMP2; assay: Inhibitory effects on human MMP2 (Method 1), enzyme assay with MOCAc-Pro-Leu-Gly-Leu-A2pr(Dnp)-Ala-Arg-NH2 substrate, 96-well; type: biochemical; conditions: Test Example No. 1-1 (Method 1, 96-well microplate); read-out: Human MMP2, IC50
Description: In a reaction solution [50 mmol/L Tris-HCl (pH 7.5), 150 mmol/L NaCl, 10 mmol/L CaCl2, 0.05% Brij L23], 100 μg/mL human recombinant MMP2 enzyme and 1 mmol/L 4-Aminophenylmercuric acetate were mixed together, and reacted at 37° C. for 60 minutes. The human MMP2 activated through the reaction was poured into a 96-well microplate to reach a final concentration of 0.7 or 7 ng/mL.

human MMP12 = human MMP12 (Homo sapiens, UniProt P39900); assay: Inhibitory effects on human MMP12, enzyme assay; type: biochemical
human MMP12, sequence (P39900 106-470): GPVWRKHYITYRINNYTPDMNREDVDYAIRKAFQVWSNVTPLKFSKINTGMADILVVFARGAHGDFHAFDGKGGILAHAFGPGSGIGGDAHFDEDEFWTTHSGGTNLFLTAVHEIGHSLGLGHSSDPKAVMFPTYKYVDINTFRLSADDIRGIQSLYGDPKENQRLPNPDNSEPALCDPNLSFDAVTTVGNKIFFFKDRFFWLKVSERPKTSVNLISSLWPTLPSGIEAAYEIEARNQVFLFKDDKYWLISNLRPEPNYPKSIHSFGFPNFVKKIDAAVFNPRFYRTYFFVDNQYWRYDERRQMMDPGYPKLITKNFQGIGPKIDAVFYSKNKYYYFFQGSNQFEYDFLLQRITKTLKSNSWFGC

human MMP13 = human MMP13 (Homo sapiens, UniProt P45452); assay: Inhibitory effects on human MMP13, enzyme assay; type: biochemical; conditions: Test Example 8
Description: The human MMP13 activated through the reaction was poured into a 96-well microplate to reach a final concentration of 5 ng/mL. […] Then, MOCAc-[…] was added to reach a final concentration of 6 μmol/L, and enzymatic reaction was initiated.

MMP2 [3] = molecular target: T1, MMP2; assay: Inhibitory effects on human MMP2 (Method 2), enzyme assay with MOCAc-Pro-Leu-Gly-Leu-A2pr(Dnp)-Ala-Arg-NH2 substrate, 384-well; type: biochemical; conditions: Test Example No. 1-2 (Method 2, 384-well microplate)
[4] = Test Example 7, read-out: Human MMP12, IC50

Row | Compound | MMP2-inhibitory effect (MMP2 [1]) | IC50 (MMP2 [2]) [nM] | IC50 (human MMP12; [4]) [nM] | IC50 (human MMP13) [nM] | IC50 (MMP2 [3]) [nM] | IC50 (human MMP12) [nM]
1 | IIe-Ser-Tyr-Gly-Asn-Asp-Ala-Leu-Met-Pro [APP-IP] | selective MMP2-inhibitory effect | – | – | – | – | –
2 | CC[C@H](C)[C@@H](C(=O)N1CCC[C@H]1CC(N)=O)N(C)C(=O)[C@H](CC(C)C)NC(=O)[C@H](CCN)NC(=O)CC[C@@H](NS(=O)(=O)c1ccc(NC(=O)c2ccc(OC(F)(F)F)cc2)cc1)C(=O)O [Compound 701] ({X1-d(γGlu)}-[Dab]L[NMeI][β3hP]-NH2; N-terminus assumed) | – | 0.27 | 169 | 116 | – | –
3 | CC(C)C[C@H](NC(=O)[C@@H]1C[C@H](N)CN1C(=O)CC[C@@H](NS(=O)(=O)c1ccc(NC(=O)c2ccc(C(N)=O)cc2)cc1)C(=O)O)C(=O)N(C)[C@@H](CCC(=O)O)C(=O)N[C@H](CCCNC(=N)N)C(N)=O [Compound 29] ({PhSO2(4-NHCOPh(4-CONH2))-d(γGlu)}-[Pro(4S-NH2)]L[NMeE][dR]-NH2; C-terminus assumed) | – | – | – | – | 0.14 | –
4 | CC[C@H](C)[C@@H](C(=O)NCCCCC(N)=O)N(C)C(=O)[C@H](CC(C)C)NC(=O)[C@@H]1C[C@H](N)CN1C(=O)CC[C@@H](NS(=O)(=O)c1ccc(NC(=O)c2ccc(C(N)=O)cc2)cc1)C(=O)O [Compound 9] | – | 0.29 | 160 | 250 | – | –
5 | CC(C)C[C@H](NC(=O)[C@@H]1C[C@H](N)CN1C(=O)CC[C@@H](NS(=O)(=O)c1ccc(NC(=O)c2ccc(C(N)=O)cc2)cc1)C(=O)O)C(=O)N(C)[C@@H](CCC(=O)O)C(=O)NCCCCC(N)=O [Compound 1, N-[4-(4-carbamoylbenzamido)benzene-1-sulfonyl]-D-γ-glutamyl-(4S)-4-amino-L-prolyl-L-1 eucyl-N-(5-amino-5-oxopentyl)-N^2-methyl-L-α-glutamine] | – | 0.22 | – | 240 | – | 253
6 | COc1ccc(C(=O)Nc2ccc(S(=O)(=O)N[C@H](CC(=O)N[C@@H](CN)C(=O)N[C@@H](CC(C)C)C(=O)N(C)[C@@H](CCC(=O)O)C(=O)N3CCC[C@H]3CC(N)=O)C(=O)O)cc2)cc1 [Compound 691] ({Phenylsulfonyl(4-anisamido)-d(βAsp)}-[Dap]L[NMeE][β3hP]-NH2; N-terminus assumed) | – | 0.065 | 101 | 142 | – | –
